Read-outs that look alike come from different tables or passages of the source.
Experiments:
[1] = target: T1, human DiG T-type channels (Homo sapiens, UniProt O43497); assay: T-type calcium channel block, whole-cell patch clamp in HEK cell lines; assay type: cell-based
T1 construct: expressed in transfected cells
Description: Standard patch-clamp techniques were employed to identify blockers of T-type currents. Briefly, previously described HEK cell lines stably expressing human DiG T-type channels were used for all the recordings (passage #: 4-20, 37° C., 5% CO2). To obtain T-type currents, plastic dishes containing semi-confluent cells were positioned on the stage of a ZEISS AXIOVERT S100 microscope after replacing the culture medium with external solution (see below). Whole-cell patches were obtained using pipettes (borosilicate glass with filament, O.D.: 1.5 mm, I.D.: 0.86 mm, 10 cm length), fabricated on a SUTTER P-97 puller with resistance values of ˜5 MΩ (see below for internal solution).
In the non-inactivating protocol, the holding potential is set at −110 mV and with a pre-pulse at −100 mV for 1 second prior to the test pulse at −40 mV for 50 ms. […]
Test compounds were dissolved in external solution, 0.1-0.01% DMSO. After ˜10 min rest, they were applied by gravity close to the cell using a WPI microfil tubing. The “non-inactivated” pre-pulse was used to examine the resting block of a compound. The “inactivated” protocol was employed to study voltage-dependent block. However, the initial data shown below were mainly obtained using the non-inactivated protocol only. IC50 values are shown for various compounds of the invention in Table 5.

[2] = target: T2, rat brain N-type calcium channel subunits (α1B+α2δ+β1b cDNA subunits) (Rattus norvegicus, UniProt Q02294); assay: N-type calcium channel block, whole cell patch clamp in HEK 293 cells; assay type: cell-based; conditions: holding potential −80 mV to +10 mV
T2 construct: expressed in transfected cells
Description: N-type calcium channel blocking activity was assayed in human embryonic kidney cells, HEK 293, stably transfected with the rat brain N-type calcium channel subunits (α1B+α2δ+β1b cDNA subunits). Alternatively, N-type calcium channels (α1B+α2δ+β1b cDNA subunits), L-type channels (α1C+α2δ+β1b cDNA subunits) and P/Q-type channels (α1A+α2δ+β1b cDNA subunits) were transiently expressed in HEK 293 cells. Briefly, cells were cultured in Dulbecco's modified eagle medium (DMEM) supplemented with 10% fetal bovine serum, 200 U/ml penicillin and 0.2 mg/ml streptomycin at 37° C. with 5% CO2. At 85% confluency cells were split with 0.25% trypsin/1 mM EDTA and plated at 10% confluency on glass coverslips. At 12 hours the medium was replaced and the cells transiently transfected using a standard calcium phosphate protocol and the appropriate calcium channel cDNA's. Fresh DMEM was supplied and the cells transferred to 28° C./5% CO2. Cells were incubated for 1 to 2 days prior to whole cell recording.
Whole cell patch clamp experiments were performed using an Axopatch 200B amplifier (Axon Instruments, Burlingame, Calif.) linked to a personal computer equipped with pCLAMP software. The external and internal recording solutions contained, respectively, 5 mM BaCl2, 10 mM MgCl2, 10 mM HEPES, 40 mM TEAC1, 10 mM glucose, 87.5 mM CsCl (pH 7.2) and 108 mM CsMS, 4 mM MgCl2, 9 mM EGTA, 9 mM HEPES (pH 7.2). Currents were typically elicited from a holding potential of −80 mV to +10 mV using Clampex software (Axon Instruments). Typically, currents were first elicited with low frequency stimulation (0.067 Hz) and allowed to stabilize prior to application of the compounds. The compounds were then applied during the low frequency pulse trains for two to three minutes to assess tonic block, and subsequently the pulse frequency was increased to 0.2 Hz to assess frequency dependent block. Data were analyzed using Clampfit (Axon Instruments) and SigmaPlot 4.0 (Jandel Scientific).

[3] = system: rat formalin model; assay: Formalin-induced pain model (paw flinches); assay type: in vivo; conditions: 30 mg/kg IP, 10 min before formalin, ±SEM, saline control=100%
Description: The effects of intrathecally delivered compounds of the invention on the rat formalin model were measured. The compounds were reconstituted to stock solutions of approximately 10 mg/ml in propylene glycol. Eight Holtzman male rats of 275-375 g size were randomly selected per test article.
The following study groups were used, with test article, vehicle control (propylene glycol) and saline delivered intraperitoneally (IP):
Prior to initiation of drug delivery baseline behavioral and testing data were taken.
On the morning of testing, a small metal band (0.5 g) was loosely placed around the right hind paw. The rat was placed in a cylindrical Plexiglas chamber for adaptation a minimum of 30 minutes. Test Article or Vehicle Control Article was administered 10 minutes prior to formalin injection (50 μl of 5% formalin) into the dorsal surface of the right hind paw of the rat. The animal was then placed into the chamber of the automated formalin apparatus where movement of the formalin injected paw was monitored and the number of paw flinches tallied by minute over the next 60 minutes (Malmberg, A. B., et al., Anesthesiology (1993) 79:270-281).
Results are presented as Maximum Possible Effect ±SEM, where saline control=100%.

[4] = inactivation protocol, @ −80 mV, read-out: IC50 @ −80 mV
[5] = non-inactivating protocol, pre-pulse −100 mV, test pulse −40 mV, read-out: IC50 @ −100 mV
[6] = low frequency stimulation 0.067 Hz (tonic block), read-out: IC50 @ 0.067 Hz
[7] = pulse frequency 0.2 Hz (frequency dependent block), read-out: IC50 @ 0.2 Hz

T1 sequence (O43497 whole entry): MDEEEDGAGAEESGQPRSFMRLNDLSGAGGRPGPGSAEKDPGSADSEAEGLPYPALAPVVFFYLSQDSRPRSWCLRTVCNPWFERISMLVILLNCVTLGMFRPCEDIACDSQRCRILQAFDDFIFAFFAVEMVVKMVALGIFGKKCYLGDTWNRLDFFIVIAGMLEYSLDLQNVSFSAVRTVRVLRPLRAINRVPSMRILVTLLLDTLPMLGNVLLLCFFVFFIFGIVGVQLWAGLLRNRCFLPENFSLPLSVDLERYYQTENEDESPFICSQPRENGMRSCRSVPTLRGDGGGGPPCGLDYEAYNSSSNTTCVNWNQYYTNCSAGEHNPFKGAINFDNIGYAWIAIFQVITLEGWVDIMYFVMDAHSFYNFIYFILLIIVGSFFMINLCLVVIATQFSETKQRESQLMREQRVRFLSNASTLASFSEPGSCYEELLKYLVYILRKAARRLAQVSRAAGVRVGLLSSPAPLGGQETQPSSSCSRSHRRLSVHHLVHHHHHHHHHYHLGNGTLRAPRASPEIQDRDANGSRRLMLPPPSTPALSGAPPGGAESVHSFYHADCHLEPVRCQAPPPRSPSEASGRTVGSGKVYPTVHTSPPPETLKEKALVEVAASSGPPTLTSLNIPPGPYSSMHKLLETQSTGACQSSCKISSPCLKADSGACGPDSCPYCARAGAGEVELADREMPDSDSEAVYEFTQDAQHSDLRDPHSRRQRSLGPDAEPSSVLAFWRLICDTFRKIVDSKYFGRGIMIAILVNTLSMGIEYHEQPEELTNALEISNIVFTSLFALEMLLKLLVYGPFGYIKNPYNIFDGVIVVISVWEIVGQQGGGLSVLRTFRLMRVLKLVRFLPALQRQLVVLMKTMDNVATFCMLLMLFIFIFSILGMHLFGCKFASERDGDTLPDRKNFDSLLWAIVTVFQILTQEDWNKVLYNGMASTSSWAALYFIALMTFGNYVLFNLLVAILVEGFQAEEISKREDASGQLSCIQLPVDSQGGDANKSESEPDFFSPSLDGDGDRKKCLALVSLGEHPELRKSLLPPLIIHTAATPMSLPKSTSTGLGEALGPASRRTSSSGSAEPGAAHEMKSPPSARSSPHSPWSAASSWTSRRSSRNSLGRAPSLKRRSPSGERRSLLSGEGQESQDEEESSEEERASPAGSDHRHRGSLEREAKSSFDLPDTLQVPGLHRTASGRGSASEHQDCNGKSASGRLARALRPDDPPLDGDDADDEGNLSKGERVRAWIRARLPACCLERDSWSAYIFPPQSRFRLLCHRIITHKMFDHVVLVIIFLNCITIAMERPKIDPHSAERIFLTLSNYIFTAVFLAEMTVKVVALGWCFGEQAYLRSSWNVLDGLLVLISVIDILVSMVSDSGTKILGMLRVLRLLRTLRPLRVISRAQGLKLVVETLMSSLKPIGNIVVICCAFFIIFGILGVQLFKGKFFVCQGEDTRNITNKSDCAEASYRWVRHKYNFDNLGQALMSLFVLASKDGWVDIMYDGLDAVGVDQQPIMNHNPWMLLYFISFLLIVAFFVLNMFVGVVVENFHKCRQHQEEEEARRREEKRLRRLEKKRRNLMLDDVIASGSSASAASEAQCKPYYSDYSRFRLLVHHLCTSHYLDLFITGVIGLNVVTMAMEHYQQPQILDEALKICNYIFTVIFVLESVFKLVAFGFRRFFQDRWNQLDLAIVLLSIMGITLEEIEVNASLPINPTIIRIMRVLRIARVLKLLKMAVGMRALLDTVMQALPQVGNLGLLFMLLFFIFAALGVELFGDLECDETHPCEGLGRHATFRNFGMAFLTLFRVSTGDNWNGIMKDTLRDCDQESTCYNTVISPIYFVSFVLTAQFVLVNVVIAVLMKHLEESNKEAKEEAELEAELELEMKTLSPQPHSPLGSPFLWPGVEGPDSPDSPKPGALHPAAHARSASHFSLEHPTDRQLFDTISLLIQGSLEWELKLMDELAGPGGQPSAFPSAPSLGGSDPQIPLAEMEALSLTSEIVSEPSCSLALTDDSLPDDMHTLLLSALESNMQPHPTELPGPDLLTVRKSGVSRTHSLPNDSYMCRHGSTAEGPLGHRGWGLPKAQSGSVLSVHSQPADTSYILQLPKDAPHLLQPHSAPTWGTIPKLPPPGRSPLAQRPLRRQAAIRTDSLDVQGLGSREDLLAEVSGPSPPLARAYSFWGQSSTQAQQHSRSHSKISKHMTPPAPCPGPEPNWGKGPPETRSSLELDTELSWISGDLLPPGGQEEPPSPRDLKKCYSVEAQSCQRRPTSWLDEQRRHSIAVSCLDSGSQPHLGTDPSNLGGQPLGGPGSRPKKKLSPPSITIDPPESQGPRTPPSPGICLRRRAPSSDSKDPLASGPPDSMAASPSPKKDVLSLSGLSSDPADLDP

Compound	IC50 [1, 4] [µM]	IC50 [1, 5] [µM]	IC50 [2, 6] [µM]	IC50 [2, 7] [µM]	Phase I (% MPE) [3] [% MPE]	Phase II Total (% MPE) [3] [% MPE]	Phase IIA (% MPE) [3] [% MPE]	Phase IIB (% MPE) [3] [% MPE]
O=C(NC(c1ccccc1)c1ccccc1)N1CCN(C(c2ccccc2)c2ccc(Cl)cc2Cl)CC1 (stereo not drawn) [Compound 2, 4-[(2,4-Dichloro-phenyl)-phenyl-methyl]-piperazine-1-carboxylic acid benzhydryl-amide]	0.066	0.221	1.48	1.48				
Cc1ccc(C(c2ccccc2)N2CCN(C(=O)NC(c3ccccc3)c3ccccc3)CC2)c(C)c1 (stereo not drawn) [Compound 3]	0.028	0.075	2.71	2.71				
O=C(NC(c1ccccc1)c1ccccc1)N1CCN(C(c2ccccc2)c2ccc(Cl)cc2)CC1 (stereo not drawn) [Compound 4, 4-[(4-Chloro-phenyl)-phenyl-methyl]-piperazine-1-carboxylic acid benzhydryl-amide]	0.056	0.171	0.29	0.28	71 ± 15	74 ± 11	70 ± 13	88 ± 9
O=C(NC(c1ccccc1)c1ccccc1)N1CCN(C(c2ccccc2)c2cccc(Cl)c2)CC1 (stereo not drawn) [Compound 5, 4-[(3-Chloro-phenyl)-phenyl-methyl]-piperazine-1-carboxylic acid benzhydryl-amide]	0.053	0.242	0.39	0.34	54 ± 11	65 ± 10	52 ± 10	105 ± 13
O=C(NC(c1ccccc1)c1ccccc1)N1CCN(C(c2ccccc2)c2ccccc2Cl)CC1 (stereo not drawn) [Compound 6, 4-[(2-Chloro-phenyl)-phenyl-methyl]-piperazine-1-carboxylic acid benzhydryl-amide]	0.047	0.147	0.28	0.18	53 ± 10	71 ± 7	63 ± 9	99 ± 5
O=C(NC(c1ccccc1)c1ccccc1)N1CCN(C(c2ccccc2)c2cccc(Cl)c2Cl)CC1 (stereo not drawn) [Compound 7, 4-[(2,3-Dichloro-phenyl)-phenyl-methyl]-piperazine-1-carboxylic acid benzhydryl-amide]	0.324	4.2	0.23	0.2	61 ± 6	71 ± 7	63 ± 9	85 ± 20
CN1CCC(CN2CCN(C(=O)NC(c3ccccc3)c3ccccc3)CC2)CC1 [Compound 10, 4-(1-Methyl-piperidin-4-yl-methyl)-piperazine-1-carboxylic acid benzhydryl-amide]	20	20	0.26	0.26				
CN(C)CCCN1CCN(C(=O)NC(c2ccccc2)c2ccccc2)CC1 [Compound 11, 4-(3-Dimethylamino-propyl)-piperazine-1-carboxylic acid benzhydryl-amide]			2.17	0.99	59 ± 13	60 ± 12	50 ± 14	94 ± 22
CN1CCCC(CN2CCN(C(=O)NC(c3ccccc3)c3ccccc3)CC2)C1 (stereo not drawn) [Compound 12, 4-(1-Methyl-piperidin-3-ylmethyl)-piperazine-1-carboxylic acid benzhydryl-amide]			1.7	0.49				
CN1CCC(C(c2ccccc2)N2CCN(C(=O)NC(c3ccccc3)c3ccccc3)CC2)CC1 (stereo not drawn) [Compound 20, 4-[(1-Methyl-piperidin-4-yl)-phenyl-methyl]-piperazine-1-carboxylic acid benzhydryl-amide]	3.4	5.1						
O=C(NC(c1ccccc1)c1ccccc1)N1CCN(CCN2CCCC2)CC1 [Compound 21]	2	15	1	1				
CN1CCC(C(c2ccc(Cl)cc2)N2CCN(C(=O)NC(c3ccccc3)c3ccccc3)CC2)CC1 (stereo not drawn) [Compound 24, 4-[(1-Methyl-piperidin-4-yl)-(4-chloro-phenyl)-methyl]-piperazine-1-carboxylic acid benzhydryl-amide]			4.31	2.46				

Now from value to molecule, other results behind:

IC50 [1, 4] [µM]	IC50 [1, 5] [µM]	IC50 [2, 6] [µM]	IC50 [2, 7] [µM]	Compound	Phase I (% MPE) [3] [% MPE]	Phase II Total (% MPE) [3] [% MPE]	Phase IIA (% MPE) [3] [% MPE]	Phase IIB (% MPE) [3] [% MPE]
		6.3	2.15	CN1CCCC(C(c2ccccc2)N2CCN(C(=O)NC(c3ccccc3)c3ccccc3)CC2)C1 (stereo not drawn) [Compound 22, 4-[(1-Methyl-piperidin-3-yl)-phenyl-methyl]-piperazine-1-carboxylic acid benzhydryl-amide]				
		> 5.9		CN1CCC[C@H]1CN1CCN(C(=O)NC(c2ccccc2)c2ccccc2)CC1 [Compound 25]				
> 6.72	> 23	> 20	> 8.8	CN(C(=O)N1CCN(CCN2CCCC2)CC1)C(c1ccccc1)c1ccccc1 [Compound 32, 4-(2-pyrrolidin-1-ylethyl)-piperazine-1-carboxylic acid benzhydryl-methyl-amide]				
	0.663	3.47	2.16	O=C(NC(c1ccccc1)c1ccccc1)N1CCN(C(c2ccccc2)C2CCNCC2)CC1 (stereo not drawn) [Compound 35, 4-[Piperidin-4-yl-phenyl-methyl]-piperazine-1-carboxylic acid benzhydryl-amide]				
1.3	1.9			Cc1ccc(C(C2CCN(C)CC2)N2CCN(C(=O)NC(c3ccccc3)c3ccccc3)CC2)c(C)c1 (stereo not drawn) [Compound 36, 4-[(1-Methyl-piperidin-4-yl)-(2,4-dimethyl-phenyl)-methyl]-piperazine-1-carboxylic acid benzhydryl-amide]				
		1.33	0.91	CN1CCC(C(c2ccccc2Cl)N2CCN(C(=O)NC(c3ccccc3)c3ccccc3)CC2)CC1 (stereo not drawn) [Compound 37, 4-[(1-Methyl-piperidin-4-yl)-(2-chloro-phenyl)-methyl]-piperazine-1-carboxylic acid benzhydryl-amide]				
		3.31	1.56	CN1CCC(C(c2cccc(Cl)c2)N2CCN(C(=O)NC(c3ccccc3)c3ccccc3)CC2)CC1 (stereo not drawn) [Compound 38, 4-[(1-Methyl-piperidin-4-yl)-(3-chloro-phenyl)-methyl]-piperazine-1-carboxylic acid benzhydryl-amide]				
		0.66	0.31	CN(C(=O)N1CCN(C(c2ccccc2)c2ccccc2)CC1)C(c1ccccc1)c1ccccc1 [Compound 39, 4-(Diphenyl-methyl)-piperazine-1-carboxylic acid benzhydryl-methyl-amide]				
